Data as given in PMC11207335, “In Vitro Metabolism and Transport Characteristics of Zastaprazan” (Pharmaceutics, 2024).

Key:
[1] = biological target: T1, OAT3 (Homo sapiens, UniProt Q8TCC7); assay: Uptake into HEK293 cells expressing OAT3; conditions: for Uptake Rate / Fold-Change: 6 μM; for Fold-Change: vs HEK293-mock; for Substrate: OAT3
T1 sequence (Q8TCC7 1-542): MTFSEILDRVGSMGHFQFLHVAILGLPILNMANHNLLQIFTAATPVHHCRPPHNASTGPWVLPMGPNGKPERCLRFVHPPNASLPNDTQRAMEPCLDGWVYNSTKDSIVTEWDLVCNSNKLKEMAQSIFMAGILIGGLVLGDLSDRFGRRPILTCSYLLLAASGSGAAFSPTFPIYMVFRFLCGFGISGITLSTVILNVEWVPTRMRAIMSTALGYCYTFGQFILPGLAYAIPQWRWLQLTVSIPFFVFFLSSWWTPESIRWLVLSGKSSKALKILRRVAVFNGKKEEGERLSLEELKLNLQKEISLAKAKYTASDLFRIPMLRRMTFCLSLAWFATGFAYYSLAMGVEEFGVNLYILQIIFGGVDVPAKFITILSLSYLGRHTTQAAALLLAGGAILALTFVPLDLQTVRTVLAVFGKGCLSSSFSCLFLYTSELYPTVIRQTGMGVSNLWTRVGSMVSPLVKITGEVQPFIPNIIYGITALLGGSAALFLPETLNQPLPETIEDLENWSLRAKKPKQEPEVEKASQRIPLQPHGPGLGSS

[2] = biological target: T2, OAT1 (Homo sapiens, UniProt Q4U2R8); assay: Uptake into HEK293 cells expressing OAT1; conditions: for Uptake Rate / Fold-Change: 6 μM; for Fold-Change: vs HEK293-mock; for Substrate: OAT1
T2 sequence (Q4U2R8 1-563): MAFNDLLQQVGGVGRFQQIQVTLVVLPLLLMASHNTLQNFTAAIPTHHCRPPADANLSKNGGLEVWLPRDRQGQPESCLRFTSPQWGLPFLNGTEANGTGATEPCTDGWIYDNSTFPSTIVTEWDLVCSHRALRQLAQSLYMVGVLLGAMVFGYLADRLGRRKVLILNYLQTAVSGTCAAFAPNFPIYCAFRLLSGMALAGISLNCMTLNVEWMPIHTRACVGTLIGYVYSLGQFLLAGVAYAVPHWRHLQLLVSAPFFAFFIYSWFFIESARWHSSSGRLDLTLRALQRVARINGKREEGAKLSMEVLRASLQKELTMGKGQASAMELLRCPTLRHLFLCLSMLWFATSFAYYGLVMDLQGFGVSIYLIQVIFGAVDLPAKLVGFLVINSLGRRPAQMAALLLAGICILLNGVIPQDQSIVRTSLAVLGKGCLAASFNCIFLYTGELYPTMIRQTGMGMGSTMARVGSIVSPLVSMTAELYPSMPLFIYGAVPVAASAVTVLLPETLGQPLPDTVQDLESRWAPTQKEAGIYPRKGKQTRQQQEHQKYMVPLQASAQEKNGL

[3] = biological target: T3, OATP1B1 (Homo sapiens, UniProt Q9Y6L6); assay: Uptake into HEK293 cells expressing OATP1B1; conditions: for Uptake Rate / Fold-Change: 6 μM; for Fold-Change: vs HEK293-mock; for Substrate: OATP1B1
T3 sequence (Q9Y6L6 1-691): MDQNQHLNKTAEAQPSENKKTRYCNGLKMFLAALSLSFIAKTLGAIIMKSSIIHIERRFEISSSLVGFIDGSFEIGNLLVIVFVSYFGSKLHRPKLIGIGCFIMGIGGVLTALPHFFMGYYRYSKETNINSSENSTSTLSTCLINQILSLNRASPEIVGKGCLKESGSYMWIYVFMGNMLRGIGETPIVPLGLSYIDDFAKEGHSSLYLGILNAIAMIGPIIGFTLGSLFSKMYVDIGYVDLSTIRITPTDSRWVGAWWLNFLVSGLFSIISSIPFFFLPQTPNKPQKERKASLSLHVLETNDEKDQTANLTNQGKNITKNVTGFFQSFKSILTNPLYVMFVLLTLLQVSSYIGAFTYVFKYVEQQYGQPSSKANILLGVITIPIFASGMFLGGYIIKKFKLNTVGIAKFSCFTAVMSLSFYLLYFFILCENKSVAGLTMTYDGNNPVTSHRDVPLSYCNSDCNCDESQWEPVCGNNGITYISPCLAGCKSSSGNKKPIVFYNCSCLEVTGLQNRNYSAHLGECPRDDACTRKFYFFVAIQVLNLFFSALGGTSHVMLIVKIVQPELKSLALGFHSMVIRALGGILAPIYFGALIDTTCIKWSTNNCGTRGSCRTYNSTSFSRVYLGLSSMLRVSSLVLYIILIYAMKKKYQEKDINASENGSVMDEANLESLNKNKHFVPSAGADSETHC

[4] = biological target: T4, OATP1B3 (Homo sapiens, UniProt Q9NPD5); assay: Uptake into HEK293 cells expressing OATP1B3; conditions: for Uptake Rate / Fold-Change: 6 μM; for Fold-Change: vs HEK293-mock; for Substrate: OATP1B3
T4 sequence (Q9NPD5 1-702): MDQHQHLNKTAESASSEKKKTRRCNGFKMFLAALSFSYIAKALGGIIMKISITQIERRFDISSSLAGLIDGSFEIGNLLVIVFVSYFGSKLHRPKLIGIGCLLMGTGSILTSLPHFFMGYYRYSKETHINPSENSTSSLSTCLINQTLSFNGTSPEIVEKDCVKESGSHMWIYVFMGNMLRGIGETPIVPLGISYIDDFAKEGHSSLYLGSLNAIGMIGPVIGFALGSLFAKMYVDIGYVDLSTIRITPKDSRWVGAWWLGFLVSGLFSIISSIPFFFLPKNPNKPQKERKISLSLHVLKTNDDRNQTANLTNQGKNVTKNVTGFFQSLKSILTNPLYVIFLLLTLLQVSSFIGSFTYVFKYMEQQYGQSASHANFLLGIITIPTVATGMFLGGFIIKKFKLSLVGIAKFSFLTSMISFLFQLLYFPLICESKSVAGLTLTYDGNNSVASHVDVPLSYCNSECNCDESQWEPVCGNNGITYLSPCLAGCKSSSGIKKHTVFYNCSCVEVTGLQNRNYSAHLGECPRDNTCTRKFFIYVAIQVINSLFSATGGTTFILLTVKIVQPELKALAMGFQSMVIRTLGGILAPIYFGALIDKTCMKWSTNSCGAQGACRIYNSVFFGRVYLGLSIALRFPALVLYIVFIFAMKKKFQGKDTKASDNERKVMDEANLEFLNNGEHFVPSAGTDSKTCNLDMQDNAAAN

| Compound | Uptake Rate ([1]; HEK293-OAT3, control) [pmol/min/10^5 Cells] | Fold-Change ([1]; HEK293-OAT3, control) | Uptake Rate ([1]; HEK293-OAT3, probenecid 20 μM) [pmol/min/10^5 Cells] | Fold-Change ([1]; HEK293-OAT3, probenecid 20 μM) | Substrate [1] | Uptake Rate ([2]; HEK293-OAT1, control) [pmol/min/10^5 Cells] | Fold-Change ([2]; HEK293-OAT1, control) | Uptake Rate ([2]; HEK293-OAT1, probenecid 20 μM) [pmol/min/10^5 Cells] | Fold-Change ([2]; HEK293-OAT1, probenecid 20 μM) | Substrate [2] | Uptake Rate ([3]; HEK293-OATP1B1, control) [pmol/min/10^5 Cells] | Fold-Change ([3]; HEK293-OATP1B1, control) | Uptake Rate ([3]; HEK293-OATP1B1, rifampin 20 μM) [pmol/min/10^5 Cells] | Fold-Change ([3]; HEK293-OATP1B1, rifampin 20 μM) | Substrate [3] | Uptake Rate ([4]; HEK293-OATP1B3, control) [pmol/min/10^5 Cells] | Fold-Change ([4]; HEK293-OATP1B3, control) | Uptake Rate ([4]; HEK293-OATP1B3, rifampin 20 μM) [pmol/min/10^5 Cells] | Fold-Change ([4]; HEK293-OATP1B3, rifampin 20 μM) | Substrate [4] |
| --- | --- | --- | --- | --- | --- | --- | --- | --- | --- | --- | --- | --- | --- | --- | --- | --- | --- | --- | --- | --- |
| Cc1cccc(CO)c1CNc1cc(C(=O)N2CCC2)cn2c(C)c(C)nc12 [M1, azetidin-1-yl(8-((2-(hydroxymethyl)-6-methyl-benzyl)amino)-2,3-dimethylimidazo[1,2-a]pyridin-6-yl)methanone] | 58.53 ± 3.71 | 1.1 | 52.47 ± 2.27 | 1.0 | No | 68.04 ± 2.96 | 1.3 | 61.04 ± 5.29 | 1.2 | No | 52.79 ± 2.39 | 1.0 | 53.60 ± 3.73 | 1.0 | No | 44.54 ± 0.74 | 0.9 | 52.67 ± 2.99 | 1.0 | No |
| Cc1cccc(C)c1CNc1cc(C(=O)N2CCC2)cn2c(C)c(C)nc12 [JP-1366, 1-azetidinyl(8-(((2,6-dimethylphenyl)methyl)amino)-2,3-dimethylimidazo(1,2-a)pyridin-6-yl)methanone] | 58.53 ± 3.71 |  | 52.47 ± 2.27 |  | No | 68.04 ± 2.96 |  | 61.04 ± 5.29 |  | No | 52.79 ± 2.39 |  | 53.60 ± 3.73 |  | No | 44.54 ± 0.74 |  | 52.67 ± 2.99 |  | No |
